Results as given in patent US11584747B2, “Substituted pyridopyrimidinonyl compounds useful as T cell activators” (BRISTOL-MYERS SQUIBB COMPANY, priority 2019, dated 2023).
Read-outs that look alike come from different tables or passages of the source.

What was measured:
[1] = biological target: T1, human DGKα (Homo sapiens (Human), UniProt P23743); assay: DGKα ADPGLO assay (detergent/lipid micelle substrate); type: biochemical
Method: DGK Alpha ADPGLO (Truncated) IC50 (uM)
The detergent/lipid micelle was prepared by combining 15 g phosphatidylserine (Avanti 840035P) and 1 g diacylglycerol (8008110) and dissolving into 150 mL chloroform in a 2 L round bottom flask. Chloroform was removed under high vacuum by rotary evaporation. […] The lipid/detergent solution was split into 5 mL aliquots and stored at −80° C.

[2] = biological target: human DGKζ (Homo sapiens (Human), UniProt Q13574); assay: DGKζ LIPGLO assay (extruded liposome substrate, ADP-Glo luminescence); type: biochemical
[3] = test system: whole blood (pERK); assay: pERK Whole Blood; type: cell-based
[4] = test system: human venous whole blood (IFN-γ); assay: Human whole blood IFN-γ assay; type: cell-based
Method: Human venous whole blood (22.5 μL per well), obtained from healthy donors, was pre-treated with compounds for one hour at 37° C. in a humidified 95% air/5% CO2 incubator. The blood was stimulated with 2.5 μL anti-human CD3 and anti-CD28 mAb at a final concentration of 1 μg/mL each for 24 hours at 37° C. IFN-γ in the supernatants was measured using AlphLISA kit (Cat #AL217).

[5] = test system: whole blood (pERK); assay: pERK Whole Blood assay (Table A; no whole-blood pERK method described); type: cell-based; conditions: normalized
[6] = biological target: T1, human DGKα; assay: DGKα LIPGLO assay (extruded liposome substrate, ADP-Glo luminescence); type: biochemical; conditions: liposome assay; read-out: DGK alpha LIPGLO IC50
[7] = ADPGLO assay, read-out: DGK alpha ADPGLO IC50
[8] = liposome (LIPGLO) assay, read-out: DGK zeta (liposome assay) IC50
[9] = truncated DGK alpha, read-out: DGK alpha ADPGLO (Truncated) IC50
[10] = liposome assay, read-out: DGK zeta LIPGLO IC50
[11] = whole blood, normalized to 3 μM reference compound as 100% activation, read-out: IFN-γ Whole Blood Normalized EC50
[12] = Homo sapiens, whole blood, normalized to 3 μM reference compound as 100% activation, read-out: IFN-γ Whole Blood Normalized EC50

Sequence of human DGKζ (Q13574 other isoform, or with tags, fused parts or gaps): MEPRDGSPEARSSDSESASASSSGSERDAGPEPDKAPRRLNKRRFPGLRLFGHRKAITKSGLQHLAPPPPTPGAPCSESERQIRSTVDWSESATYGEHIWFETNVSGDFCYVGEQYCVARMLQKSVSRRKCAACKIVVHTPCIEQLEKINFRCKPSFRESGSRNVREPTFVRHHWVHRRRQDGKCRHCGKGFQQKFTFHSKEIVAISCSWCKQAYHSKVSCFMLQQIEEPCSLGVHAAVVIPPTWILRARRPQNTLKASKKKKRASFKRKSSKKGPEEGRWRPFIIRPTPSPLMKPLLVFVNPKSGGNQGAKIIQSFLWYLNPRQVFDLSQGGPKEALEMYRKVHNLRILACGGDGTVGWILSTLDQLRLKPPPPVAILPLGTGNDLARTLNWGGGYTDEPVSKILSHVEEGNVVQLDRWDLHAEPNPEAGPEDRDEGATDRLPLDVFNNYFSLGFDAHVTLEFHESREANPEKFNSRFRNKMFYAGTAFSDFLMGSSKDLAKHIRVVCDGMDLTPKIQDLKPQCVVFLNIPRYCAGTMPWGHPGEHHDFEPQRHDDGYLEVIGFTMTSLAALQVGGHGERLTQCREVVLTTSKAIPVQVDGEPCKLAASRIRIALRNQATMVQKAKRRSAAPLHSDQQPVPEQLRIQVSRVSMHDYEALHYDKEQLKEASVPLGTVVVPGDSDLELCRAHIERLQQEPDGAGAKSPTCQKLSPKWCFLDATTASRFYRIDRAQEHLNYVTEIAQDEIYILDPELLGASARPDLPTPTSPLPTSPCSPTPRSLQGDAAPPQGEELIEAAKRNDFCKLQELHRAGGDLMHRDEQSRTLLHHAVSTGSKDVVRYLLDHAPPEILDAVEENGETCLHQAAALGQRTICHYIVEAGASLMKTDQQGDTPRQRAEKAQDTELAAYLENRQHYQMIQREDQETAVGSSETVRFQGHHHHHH
T1 sequence (P23743 whole entry, looked up, the tested form may be a part): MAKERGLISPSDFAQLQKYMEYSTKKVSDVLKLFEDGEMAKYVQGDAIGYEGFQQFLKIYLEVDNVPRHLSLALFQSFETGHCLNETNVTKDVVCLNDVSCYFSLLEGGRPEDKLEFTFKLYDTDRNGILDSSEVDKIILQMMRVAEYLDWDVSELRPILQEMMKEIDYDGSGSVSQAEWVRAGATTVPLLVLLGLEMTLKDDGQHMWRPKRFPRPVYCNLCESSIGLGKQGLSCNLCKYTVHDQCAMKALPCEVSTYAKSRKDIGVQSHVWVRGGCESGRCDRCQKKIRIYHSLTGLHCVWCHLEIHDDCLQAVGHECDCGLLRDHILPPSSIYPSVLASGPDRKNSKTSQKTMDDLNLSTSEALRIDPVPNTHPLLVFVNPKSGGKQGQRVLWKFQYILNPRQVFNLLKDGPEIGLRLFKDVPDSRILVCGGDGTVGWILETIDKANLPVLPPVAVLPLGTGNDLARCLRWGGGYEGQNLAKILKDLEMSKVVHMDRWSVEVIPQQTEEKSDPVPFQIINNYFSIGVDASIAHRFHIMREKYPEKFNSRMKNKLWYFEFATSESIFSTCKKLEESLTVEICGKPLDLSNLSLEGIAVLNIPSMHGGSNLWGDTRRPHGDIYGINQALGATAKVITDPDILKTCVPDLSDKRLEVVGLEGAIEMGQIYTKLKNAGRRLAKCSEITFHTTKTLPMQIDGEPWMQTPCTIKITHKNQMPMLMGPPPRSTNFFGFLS

SMILES	IC50 [2, 8] [nM]	EC50 [3] [nM]	IC50 [1, 9] [nM]	IC50 [2, 10] [nM]	IC50 [6] [nM]	IC50 [5] [nM]	other results
CC[C@@H]1CN(c2nc(=O)n(C)c3ccc(C#N)nc23)[C@@H](C)CN1C(c1ccc(OC(C)C)cc1)C(C)C (stereo partly drawn) [Example 323, 4-((2S,5R)-5-ethyl-4-(1-(4-isopropoxyphenyl)-2-methylpropyl)-2-methylpiperazin-1-yl)-1-methyl-2-oxo-1,2-dihydropyrido[3,2-d]pyrimidine-6-carbonitrile]	21	670					IC50 [1, 7]: 520 nM
C[C@@H]1CN(c2nc(=O)n(C)c3ccc(C#N)nc23)[C@@H](C)CN1C(c1ccc(F)cc1)C12CC(C(F)(F)F)(C1)C2 (stereo partly drawn) [Example 450, 4-((2S,5R)-4-((4-fluorophenyl)(3-(trifluoromethyl)bicyclo[1.1.1]pentan-1-yl)methyl)-2,5-dimethylpiperazin-1-yl)-1-methyl-2-oxo-1,2-dihydropyrido[3,2-d]pyrimidine-6-carbonitrile]	370	20000					IC50 [1, 7]: 200 nM
CCC(c1ccc(C(F)(F)F)cc1)N1C[C@H](CC)N(c2nc(=O)[nH]c3ccc(C#N)nc23)C[C@H]1CC (stereo partly drawn) [Example 415, 4-((2S,5R)-2,5-diethyl-4-(1-(4-(trifluoromethyl)phenyl)propyl)piperazin-1-yl)-2-oxo-1,2-dihydropyrido[3,2-d]pyrimidine-6-carbonitrile]	61900	3440					IC50 [1, 7]: 3310 nM
CC[C@@H]1CN(c2nc(=O)n(C)c3ccc(C#N)nc23)[C@@H](CO)CN1C(C)c1ccc(C(F)(F)F)cc1 (single isomer, unassigned) [Example 412]	45000	670					IC50 [1, 7]: 9670 nM
C[C@@H]1CN(c2nc(=O)n(C)c3ccc(C#N)nc23)[C@@H](C)CN1C(c1ccc(F)cc1)C12CC(C(F)(F)F)(C1)C2 (stereo partly drawn) [Example 451, 4-((2S,5R)-4-((4-fluorophenyl)(3-(trifluoromethyl)bicyclo[1.1.1]pentan-1-yl)methyl)-2,5-dimethylpiperazin-1-yl)-1-methyl-2-oxo-1,2-dihydropyrido[3,2-d]pyrimidine-6-carbonitrile]		20000					
CC[C@@H]1CN(c2nc(=O)n(C)c3ccc(C#N)nc23)[C@@H](C)CN1C(C)c1ccc(C2(C#N)CC2)cc1 (stereo partly drawn) [Example 326, 4-((2S,5R)-4-(1-(4-(1-cyanocyclopropyl)phenyl)ethyl)-5-ethyl-2-methylpiperazin-1-yl)-1-methyl-2-oxo-1,2-dihydropyrido[3,2-d]pyrimidine-6-carbonitrile]		3480					
CC[C@@H]1CN(c2nc(=O)n(C)c3ccc(C#N)nc23)[C@@H](C)CN1C(C)c1ccc(C(F)(F)F)c(CN2CCCCC2)c1 (stereo partly drawn) [Example 355, 4-((2S,5R)-5-ethyl-2-methyl-4-(1-(3-(piperidin-1-ylmethyl)-4-(trifluoromethyl)phenyl)ethyl)piperazin-1-yl)-1-methyl-2-oxo-1,2-dihydropyrido[3,2-d]pyrimidine-6-carbonitrile]	41700	6690					
CCOc1ccc2c(n1)c(N1C[C@@H](CC)N(C(C)c3ccc(C(F)(F)F)cc3)C[C@@H]1CC)nc(=O)n2C (stereo partly drawn) [Example 430, 4-((2S,5R)-2,5-diethyl-4-(1-(4-(trifluoromethyl)phenyl)ethyl)piperazin-1-yl)-6-ethoxy-1-methylpyrido[3,2-d]pyrimidin-2(1H)-one]	125000	20000					EC50 ([4]; human whole blood, anti-CD3 plus anti-CD28 stimulation, 24 hours, read-out: IFN-γ Whole Blood EC50): 20000 nM
C[C@@H]1CN(c2nc(=O)n(C)c3ccc(C#N)nc23)[C@@H](C)CN1C(c1ccc(F)cc1)C12CC(C(F)(F)F)(C1)C2 (stereo partly drawn) [Example 452, 4-((2S,5R)-4-((4-fluorophenyl)(3-(trifluoromethyl)bicyclo[1.1.1]pentan-1-yl)methyl)-2,5-dimethylpiperazin-1-yl)-1-methyl-2-oxo-1,2-dihydropyrido[3,2-d]pyrimidine-6-carbonitrile]		20000					
CC[C@@H]1CN(c2nc(=O)n(C)c3ccc(C#N)nc23)[C@@H](C)CN1C(C)c1ccc(C(F)(F)F)c(CN2CCCCC2)c1 (stereo partly drawn) [Example 354, 4-((2S,5R)-5-ethyl-2-methyl-4-(1-(3-(piperidin-1-ylmethyl)-4-(trifluoromethyl)phenyl)ethyl)piperazin-1-yl)-1-methyl-2-oxo-1,2-dihydropyrido[3,2-d]pyrimidine-6-carbonitrile]	650	7950					
CC[C@H]1CN(C(C)c2ccc(C(F)(F)F)cc2F)[C@H](CC)CN1c1nc(=O)n(C)c2ccc(C#N)nc12 (single isomer, unassigned) [Example 26]			29	210	81	240	EC50 [4, 11]: 180 nM
CC[C@H]1CN(C(c2ccc(F)cc2)c2nc(C3CC3)nn2C)[C@H](CC)CN1c1nc(=O)n(C)c2ccc(C#N)nc12 (single isomer, unassigned) [Example 295]			100	820	7230	100	EC50 [4, 11]: 580 nM
CC[C@H]1CN(C(C)c2ccc(C(F)(F)F)cc2)[C@H](CC)CN1c1nc(=O)n(C)c2ccc(OCCOC)nc12 (stereo partly drawn) [Example 434, 4-((2S,5R)-2,5-diethyl-4-(1-(4-(trifluoromethyl)phenyl)ethyl)piperazin-1-yl)-6-(2-methoxyethoxy)-1-methylpyrido[3,2-d]pyrimidin-2(1H)-one]		20000					

Further lines, with some results ahead:

IC50 [2, 8] [nM]	EC50 [3] [nM]	IC50 [1, 9] [nM]	IC50 [2, 10] [nM]	IC50 [6] [nM]	SMILES	IC50 [5] [nM]	other results
1100	20000				CCC(c1ccc(OCCC(F)(F)F)cc1)N1C[C@H](C)N(c2nc(=O)n(C)c3ccc(C#N)nc23)C[C@H]1CC (single isomer, unassigned) [Example 336]		IC50 [1, 7]: 480 nM
	20000				CCC[C@@H]1CN(c2nc(=O)n(C)c3ccc(C#N)nc23)[C@@H](C)CN1C(C)c1ccc(C(F)(F)F)cc1 (single isomer, unassigned) [Example 395]		IC50 [1, 7]: 490 nM
		26	55	310	CC[C@@H]1CN(c2nc(=O)n(C)c3ccc(C#N)nc23)[C@@H](C)CN1C(c1ccc(F)cc1)c1ccc(C(F)(F)F)nc1 (single isomer, unassigned) [Example 98]	140	EC50 [4, 11]: 88 nM
		7	110	78	CC[C@H]1CN(C(c2ccc(OC(F)(F)F)cc2)c2cc(C3CC3)on2)[C@H](CC)CN1c1nc(=O)n(C)c2ccc(C#N)nc12 (single isomer, unassigned) [Example 42]	350	EC50 [4, 12]: 81 nM
		190	75	16	CCC(c1ccc(OC(F)(F)F)cc1)N1C[C@H](CC)N(c2nc(=O)n(C)c3ccc(C#N)nc23)C[C@H]1CC (single isomer, unassigned) [Example 36]	250	EC50 [4, 11]: 82 nM
		4	120	130	CC[C@@H]1CN(c2nc(=O)n(C)c3ccc(C#N)nc23)[C@@H](C)CN1C(c1ccc(OC(F)(F)F)cc1)c1cc(C2CC2)on1 (stereo partly drawn) [Example 99, 4-((2S,5R)-4-((5-cyclopropylisoxazol-3-yl)(4-(trifluoromethoxy)phenyl)methyl)-5-ethyl-2-methylpiperazin-1-yl)-1-methyl-2-oxo-1,2-dihydropyrido[3,2-d]pyrimidine-6-carbonitrile]	140	EC50 [4, 12]: 120 nM
		10	46	47	CC[C@@H]1CN(c2nc(=O)n(C)c3ccc(C#N)nc23)[C@@H](C)CN1C(c1ccc(F)cc1)c1nc(C2CC2)no1 (stereo partly drawn) [Example 113, 4-((2S,5R)-4-((3-cyclopropyl-1,2,4-oxadiazol-5-yl)(4-fluorophenyl)methyl)-5-ethyl-2-methylpiperazin-1-yl)-1-methyl-2-oxo-1,2-dihydropyrido[3,2-d]pyrimidine-6-carbonitrile]	170	EC50 [4, 11]: 57 nM
		60	110	55	CCC(c1ccc(C(F)(F)F)cc1)N1C[C@H](C)N(c2nc(=O)n(C)c3ccc(C#N)nc23)C[C@H]1CC (single isomer, unassigned) [Example 89]	260	EC50 [4, 12]: 35 nM
		210	45	630	CC[C@@H]1CN(c2nc(=O)n(C)c3ccc(C#N)nc23)[C@@H](C)CN1C(c1ccc(F)cc1)c1ccc(C(F)(F)F)nc1 (single isomer, unassigned) [Example 97]	380	EC50 [4, 12]: 99 nM
		11	22	43	CC[C@@H]1CN(c2nc(=O)n(C)c3ccc(C#N)nc23)[C@@H](C)CN1C(c1ccc(F)cc1)c1nc(C2CC2)no1 (stereo partly drawn) [Example 112, 4-((2S,5R)-4-((3-cyclopropyl-1,2,4-oxadiazol-5-yl)(4-fluorophenyl)methyl)-5-ethyl-2-methylpiperazin-1-yl)-1-methyl-2-oxo-1,2-dihydropyrido[3,2-d]pyrimidine-6-carbonitrile]	15	EC50 [4, 11]: 11 nM
